Series [1] is described as follows: Vapor pressures of embedding media (FIG. 1, from the literature). The source says:
The vapor pressures of various embedding media are known from the literature.

The conditions of series [2]: comparison of embedding media; cited from earlier work.

For `O=C(Cc1ccccc1)OCc1ccccc1` [benzyl phenylacetate, benzyl 2-phenylacetate], in series [1] (at 25° C.), the “vapor pressure, times lower than that of ethyl cinnamate” value is on record as “approximately 275 times”. In addition, the “volatility, times less volatile than DBE” value in series [1] (expanded section in FIG. 1) was “about 4 times”. Besides, the “vapor pressure (in words)” value in series [2] is given as “lowest vapor pressure”.

On to `CCOC(=O)C=Cc1ccccc1` [ethyl cinnamate, reference compound], for which, in series [2], the “vapor pressure (in words)” value is reported as “comparatively high vapor pressure”.
